Marks after values point to notes of the source that are not given here.
Assays:
RAW 264.7 macrophages [1] = assay: LPS-induced cytokine production in macrophages (ELISA, Western); type: cell-based, mouse; details: for TNF-α: RAW 264.7 macrophages
Excerpt: Animals. Male C57BL/6 and IL-10 (−/−) mice were purchased from Jackson Laboratory (Bar Harbor, Me.), and allowed to acclimate for one week with rodent chow and water ad libitum. The MKK (−/−) mice were generated as previously described [Lu, et al., EMBO J. 18:1845-1857 (1999)]. Wild type littermates were used as controls. All animals were housed in accordance with guidelines from the American Association for Laboratory Animal Care and Research Protocols and were approved by the Animal Care and Use Committee of Yale University School of Medicine. Reagents. All reagents were purchased from Sigma Chemical Co. (St Louis, Mo.) unless specified otherwise. Plasmid Construct. Plasmid pSFFV/HO-1 was constructed by insertion of the rat HO-1 cDNA [Shibahara, et al., Proc. Natl. Acad. Sci. USA. 82: 7865-7869 (1985)] downstream of the Friend spleen focus-forming virus 5′ long-terminal repeat in the mammalian expression vector pSFFV/neo [Fuhlbrigge, et al, Proc. Natl. Acad. Sci. USA. 85: 5649-5653 (1988)] (kindly provided by Stanley Korsmeyer). Transfection. Stable transfections were carried out by the calcium phosphate precipitation technique as previously described [Alam, J., J. Biol. Chem. 269: 25049-25056 (1994)]. Briefly, RAW cells were plated (1×10^6/10 cm plate) and 16 h later, transfected with […] of pSFFV/neo or pSFFV/HO-1. Cells were exposed to the DNA-CaPO4 precipitate for 6 h, shocked by a 1 min treatment with glycerol in phosphate-buffered saline and cultured for an additional 24 h in complete medium before addition of G418. Transfectants were selected over a 3-week period in the presence of G418 (up to […]) and individual clones were isolated by limited dilution. Cell Culture Experimentation. RAW 264.7 mouse peritoneal macrophages were purchased from […] (Rockville, Md.) and primary culture of rat pulmonary vascular smooth muscle cells were harvested from male Sprague Dawley rats (250-300 g) as previously described [Gunther, et al., J. Cell. Biol. 92: 289-298 (1982).]. Both cell types were grown in DMEM containing 10% FBS and gentamicin ([…]) in a humidified atmosphere of 5% CO2/balanced air or 250 ppm CO/5% CO2/balanced air. After a 2 h pretreatment with either CO or air, LPS ([…]) or sterile saline was added to the culture media and the culture plates were returned to the chamber(s). At various time points, cell plates were removed from the chamber to collect media and/or cells for Western analysis. CO Exposures. Mice or macrophages were exposed to compressed air or 250 ppm CO. For cell culture experiments, 5% CO2 was also present for buffering requirements. CO at a concentration of 1% (10,000 ppm) in compressed air was mixed with compressed air with or without CO2 in a stainless steel mixing cylinder before delivery into the exposure chamber. Flow into the 3.70-ft^2 plexiglass animal chamber was maintained at 12 L/min and into the 1.2 ft^2 cell culture chamber at a flow of 2 L/min. The cell culture chamber was humidified and maintained at 37° C. A CO analyzer (Interscan, Chatsworth, Calif.) was used to measure CO levels continuously in the chambers. Gas samples were taken by the analyzer through a port in the top of the chambers at a rate of 1 L/min and analyzed by electrochemical detection, with a sensitivity of 10-600 ppm. Concentration levels were measured hourly and there were no fluctuations in the CO concentrations once the chamber had equilibrated (approximately 5 min). Animal Experimentation. Mice were prebled from the retroorbital sinus (0.25 ml) and then exposed to CO (250 ppm) or room air for 1 h prior to administration of LPS (1 mg/kg, i.p.), E. coli serotype O127:B8. 1 and 16 h thereafter, they were removed from the exposure apparatus individually and a blood sample was obtained via the retroorbital sinus. After the blood collection, the mice were immediately returned to the exposure chamber. […]

RAW 264.7 macrophages [2] = assay: cGMP radioimmunoassay in macrophages; type: cell-based, mouse; details: 2 h
Method: Nitrate/Nitrite Analysis. Both analytes were measured in the cell culture media which had been ultrafiltered to remove all proteins greater than 10,000 molecular weight. All samples were than analyzed according to the assay kit protocols. (R & D, Minneapolis, Minn.). cGMP Radioimmunoassay (RIA) in macrophages. Macrophages or vascular smooth muscle cells were exposed to CO (250 ppm) or air. 20 min before the end of the exposure 1 mM of 3-isobutyl-1-methylxanthine (IBMX) was added to the cells to prevent phosphodiesterase degradation of cGMP. After 2 h of exposure, cells were removed from the exposure chamber, rinsed with PBS and then 0.5 ml of 75% EtOH was added to the plate and cells were scraped and disrupted via sonication for 5 s. Samples were then centrifuged at 2000 g for 10 min. Supernatants were transferred to fresh tubes and evaporated to dryness. cGMP concentration in the cell extracts was determined by radioimmunoassay (NEN, Boston, Mass.) according to manufacturer's instructions. cGMP was normalized to protein concentration as determined by Bradford assay. Statistical Analysis. Data are expressed as the mean±SE. Differences in measured variables between experimental and control group were assessed using Student's t tests. Statistical calculations were performed on a Macintosh personal computer using the Statview II Statistical Package (Abacus Concepts, Berkeley, Calif.). […]

MKK3/MKK6 = assay: LPS-induced activation of MKK3/MKK6 in RAW 264.7 cells; type: cell-based, mouse; details: LPS in the presence of CO (data not shown)
Excerpt: (§1) Animals. Male C57BL/6 and IL-10 (−/−) mice were purchased from Jackson Laboratory (Bar Harbor, Me.), and allowed to acclimate for one week with rodent chow and water ad libitum. The MKK (−/−) mice were generated as previously described [Lu, et al., EMBO J. 18:1845-1857 (1999)]. Wild type littermates were used as controls. All animals were housed in accordance with guidelines from the American Association for Laboratory Animal Care and Research Protocols and were approved by the Animal Care and Use Committee of Yale University School of Medicine. Reagents. All reagents were purchased from Sigma Chemical Co. (St Louis, Mo.) unless specified otherwise. Plasmid Construct. Plasmid pSFFV/HO-1 was constructed by insertion of the rat HO-1 cDNA [Shibahara, et al., Proc. Natl. Acad. Sci. USA. 82: 7865-7869 (1985)] downstream of the Friend spleen focus-forming virus 5′ long-terminal repeat in the mammalian expression vector pSFFV/neo [Fuhlbrigge, et al, Proc. Natl. Acad. Sci. USA. 85: 5649-5653 (1988)] (kindly provided by Stanley Korsmeyer). Transfection. […] Gas samples were taken by the analyzer through a port in the top of the chambers at a rate of 1 L/min and analyzed by electrochemical detection, with a sensitivity of 10-600 ppm. Concentration levels were measured hourly and there were no fluctuations in the CO concentrations once the chamber had equilibrated (approximately 5 min). […]

MKK3(−/−) mice given LPS = assay: LPS-induced serum cytokines in MKK3(-/-) mice; type: in vivo, mouse; details: LPS 1 mg/kg, 250 ppm CO
Excerpt: as §1

SMILES: [C-]#[O+] [CO, carbon monoxide]
- LPS-induced TNF-α production (ELISA) (RAW 264.7 macrophages [1]; CO 250 ppm): significantly attenuated levels
- LPS-induced MIP-2 (RAW 264.7 macrophages [1]; LPS, CO 250 ppm): not affecting
- LPS-induced IFN-g (RAW 264.7 macrophages [1]; LPS, CO (data not shown)): not affecting
- LPS-induced JE (RAW 264.7 macrophages [1]; LPS, CO (data not shown)): not affecting
- LPS-induced KC (RAW 264.7 macrophages [1]; LPS, CO (data not shown)): not affecting
- LPS-induced accumulation of IL-10 (RAW 264.7 macrophages [1]; LPS, CO at 250 ppm): significantly augmented
- inhibition of TNF-α production in the media by ELISA (RAW 264.7 macrophages [1]; RAW 264.7 cells, LPS in the presence of CO): > 80%
- TNF-α (RAW 264.7 macrophages [1]; with LPS): 230 ± 40^b pg/ml
- TNF-α (RAW 264.7 macrophages [1]; without LPS): 15 ± 5 pg/mL
- TNF-α protein expression by Western blot (RAW 264.7 macrophages [1]; cell lysates and media, LPS in the presence of CO): decreased TNF-α protein expression
- increase in cGMP (RAW 264.7 macrophages [2]; 250 ppm CO): no significant increase
- cGMP (RAW 264.7 macrophages [2]; CO 250 ppm): 3.95 ± 0.6 pmol/mg protein
- MKK3/MKK6 activation by LPS (MKK3/MKK6): augmentation
- LPS-induced TNF-α production (MKK3(−/−) mice given LPS): did not affect
- serum IL-10 levels after LPS (MKK3(−/−) mice given LPS): did not exhibit augmented serum IL-10 levels

Reference: patent US7678390B2, “Carbon monoxide as a biomarker and therapeutic agent” (priority 1999, dated 2010)
